Consider one compound from publication PMC7407491, “The Addition of a Synthetic LPS-Targeting Domain Improves Serum Stability While Maintaining Antimicrobial, Antibiofilm, and Cell Stimulating Properties of an Antimicrobial Peptide” (Biomolecules, 2020).

Structures are written as SMILES. Bridge positions count the residues as written; N and C are the ends. Peptide text beside a SMILES is read from it.

For data set [1] the following is noted: 25% porcine intestinal fluid (pH 6.5) in PBS, 1 mg/mL peptide, 1 h 37 °C with shaking; residual activity vs E. coli at 20 µg/mL, colony count; three independent experiments.
Protocol: Porcine digestive fluids were collected, as previously described by Wang et al. [44]. […] The gastrointestinal tract was kept at 4 °C during dissection, and collection of contents from the stomach and upper small intestine (duodenum and jejunum) was conducted within 5 h of sacrifice. Contents were centrifuged at 10,000 rpm (9600× g) for 10 min at 4 °C, and supernatant fluid was collected and stored at −80 °C until its use in the stability experiment. The pH of the collected supernatants were 3.5 and 6.5 for gastric fluid and duodenum fluid, respectively.
Procedures similar to those used by Egger et al. [45] were used for this experiment. […] Suspension containing no peptide was considered the negative control. After incubation, 10 µL of the incubated solutions was added for a total volume of 0.5 mL, consisting of 20 µL of mid-logarithmic phase E. coli cells, diluted to a concentration of about 1 × 10^5 CFU/mL, and 470 µL of 20 mM sodium phosphate buffer (pH 7). […] Stability in porcine digestive fluid was evaluated as the relative colony growth on plates from bacterial grown with digestive fluid and peptide treatments, in comparison to plates grown from bacteria grown with digestive fluid alone.
Stability was evaluated by comparing the mean growth of colonies on plates treated with peptides incubated in digestive fluids to colonies grown when treated without peptide. […]
Data set [2] has as its system S. typhimurium biofilm. Kind of data set: Enumeration of viable cells after biofilm inhibition. The class given is cell-based, Salmonella typhimurium. The settings on record: 4 µg/mL, 48 h biofilm formation, CFU plated. The protocol:
In order to investigate whether prevention or degradation of biofilm by peptide treatment impacted bacterial cell growth within the biofilm, an enumeration assay was carried out. The following protocol was developed using methods described in the work by Wilson et al.. Briefly, in separate 15 mL culture tubes, 20 µL of overnight culture of either E. coli, S. typhimurium, or MRSA were added to 1 mL of minimal salt media (40 mM […]; 22 mM KH2PO4; […] NH4CL; 740 mM NaCl; 2 mM MgSO4; 0.1 mM CaCl2; 22 mM supplemented with D-Glucose) and treated with PG-1 or SynPG-1. Due to the laborious procedure, the study was limited to measuring cell viability for only two concentrations, basing the choice on the highest significant reduction of biomass from crystal violet staining for each strain. […] These concentrations were chosen for the enumeration assay. In instances where no substantial reduction was seen, as in the case of E. coli, the highest tested biomass concentration, or higher, was chosen to confirm the lack of activity on viability. […] Tubes were placed in a static incubator at 37 °C for 48 h; the time required for untreated wells to form biofilm. After 48 h, treated media was removed and wells were rinsed with 1 mL of PBS to remove planktonic cells. […] CFU was recorded. […]

The test system of data set [3] is pre-formed S. typhimurium biofilm. Kind of data set: Pre-formed biofilm destruction assay, crystal violet. It is filed as cell-based, Salmonella typhimurium. The settings on record: 48 h pre-formed biofilm, 3 h peptide treatment 37 °C, crystal violet OD 590 nm; p < 0.05 vs control; three independent experiments, n = 6. The method, then: To test the destruction of preformed biofilms, in a 96-well plate, 15 µL of overnight culture, of either E. coli, S. typhimurium, or MRSA, was added to 150 µL of minimal salt media (40 mM […]; 22 mM KH2PO4; […] NH4CL; 740 mM NaCl; 2 mM MgSO4; 0.1 mM CaCl2; 22 mM supplemented with D-Glucose) in each well. Plates were placed in a static incubator at 37 °C for 48 h; the time required for untreated wells to form biofilm. After formation, minimal salt media was removed and wells were treated with 155 µL of minimal salt media containing PG-1 or SynPG-1. […] Plates were placed in a static incubator at 37 °C for 3 h. After 3 h, treated media was removed and wells were rinsed with 155 µL of PBS to remove planktonic cells. After sufficient drying of wells, 150 µL of 0.1% crystal violet stain was added to each well and incubated at room temperature for 30 min, after which dye was removed and wells were rinsed again with 155 µL of PBS. After sufficient drying of wells, 150 µL of 70% ethanol solution was added to each well and incubated at room temperature for 30 min. After 30 min, 100 µL of each well was added to a new 96-well plate and absorbance was measured at an OD of 590 nm.

Take `CC[C@H](C)[C@H](NC(=O)[C@H](CCCCN)NC(=O)[C@H](CCCNC(=N)N)NC(=O)[C@H](CC(C)C)NC(=O)[C@H](CC(C)C)NC(=O)[C@H](CCCNC(=N)N)NC(=O)[C@H](CCCNC(=N)N)NC(=O)[C@H](CC(C)C)NC(=O)CN)C(=O)N[C@@H](CCCNC(=N)N)C(=O)NCC(=O)N[C@@H](CCCNC(=N)N)C(=O)N[C@@H](Cc1c[nH]c2ccccc12)C(=O)N[C@@H](CCCCN)C(=O)NCC(=O)NCC(=O)NCC(=O)N[C@@H](CCCNC(=N)N)C(=O)NCC(=O)NCC(=O)N[C@@H](CCCNC(=N)N)C(=O)N[C@@H](CC(C)C)C(=O)N[C@H]1CSSC[C@@H](C(=O)N[C@H](C(=O)NCC(=O)N[C@@H](CCCNC(=N)N)C(=O)O)C(C)C)NC(=O)[C@H](C(C)C)NC(=O)[C@@H]2CSSC[C@H](NC(=O)[C@H](Cc3ccc(O)cc3)NC1=O)C(=O)N[C@@H](CCCNC(=N)N)C(=O)N[C@@H](CCCNC(=N)N)C(=O)N[C@@H](CCCNC(=N)N)C(=O)N[C@@H](Cc1ccccc1)C(=O)N2` [SynPG-1, Syn-Protegrin-1] (H-GLRRLLRKIRGRWKGGGRGGRLCYCRRRFCVCVGR-OH; disulfide 23-32, 25-30; N-terminus and C-terminus assumed): the “Antimicrobial activity after incubation in 25% porcine intestinal fluid” value in data set [1] is listed as “mean % growth of control increased”. In data set [2], the “Reduction of mean % growth of control compared with PG-1” value is “significantly lower reduction of mean % growth of control”. In addition, the “Concentration with significant disruption of pre-formed biofilm” value in data set [3] amounted to 8 µg/mL.
